# Data as given in ChEMBL document CHEMBL5625161, “Pharmacological activity and mechanism of pyrazines” (Eur J Med Chem, 2023).
# Experiments:
# [1] = test system: Human coronavirus 229E; test: Antiviral activity against Human coronavirus 229E cells assessed as inhibition of virus-induced cytopathic effect by crystal violet staining based analysis; type: functional, organism-based
# [2] = test system: Huh-7; test: Antiproliferative activity against human Huh-7 cells assessed as reduction in cell viability incubated for 48 hrs by MTT assay; type: functional, cell-based; conditions: Huh-7, 48 h
# [3] = test system: LOX IMVI; test: Cytotoxicity against human LOX IMVI cells assessed as cell growth inhibition at 10 uM measured after 48 hrs by SRB assay relative to control; type: functional; parameters: scale not given: the % may be the effect or the level left
# [4] = test system: SNB-75; test: Cytotoxicity against human SNB-75 cells assessed as cell growth inhibition at 10 uM measured after 48 hrs by SRB assay relative to control; type: functional; parameters: scale not given: the % may be the effect or the level left
# [5] = test system: A549; test: Cytotoxicity against human A549 cells assessed as cell growth inhibition at 10 uM measured after 48 hrs by SRB assay relative to control; type: functional; parameters: scale not given: the % may be the effect or the level left
# [6] = test system: MDA-MB-231; test: Cytotoxicity against human MDA-MB-231 cells assessed as cell growth inhibition at 10 uM measured after 48 hrs by SRB assay relative to control; type: functional; parameters: scale not given: the % may be the effect or the level left
# [7] = test system: PC-3; test: Cytotoxicity against human PC-3 cells assessed as cell growth inhibition at 10 uM measured after 48 hrs by SRB assay relative to control; type: functional; parameters: scale not given: the % may be the effect or the level left
# [8] = Antiproliferative activity against human WI-38 cells assessed as cell growth inhibition measured after 72 hrs by MTT assay; type: toxicity, cell-based
# [9] = test system: L02; test: Antiproliferative activity against human HL7702 cells assessed as cell growth inhibition measured after 72 hrs by MTT assay; type: functional, cell-based; conditions: L02, 72 h
# [10] = test system: HeLa; test: Antitumor activity against human HeLa cells assessed as cell growth inhibition incubated for 72 hrs by MTT assay; type: functional, cell-based
# [11] = test system: MGC-803; test: Antiproliferative activity against human MGC-803 cells assessed as inhibition of cell growth incubated for 72 hrs by MTT assay; type: functional, cell-based; conditions: MGC-803, 72 h
# [12] = test system: T-24; test: Antiproliferative activity against human T-24 cells assessed as inhibition of cell growth incubated for 72 hrs by MTT assay; type: functional, cell-based; conditions: T-24, 72 h
# [13] = Cytotoxicity against mouse HL-1 cells assessed as cell viability incubated for 24 hrs by CytoTox-Glo luminescence assay relative to control; type: toxicity, cell-based
# [14] = test system: MDA-MB-231; test: Antiproliferative activity against human MDA-MB-231 cells assessed as inhibition of cell growth at 0.1 uM incubated for 24 hrs by SRB assay relative to control; type: functional; parameters: scale not given: the % may be the effect or the level left
# [15] = test system: HCT-116; test: Antiproliferative activity against human HCT-116 cells assessed as inhibition of cell growth at 0.1 uM incubated for 24 hrs by SRB assay relative to control; type: functional; parameters: scale not given: the % may be the effect or the level left
# [16] = test system: MCF7; test: Antiproliferative activity against human MCF7 cells assessed as inhibition of cell growth at 0.1 uM incubated for 24 hrs by SRB assay relative to control; type: functional; parameters: scale not given: the % may be the effect or the level left
# [17] = target: Aldo-keto reductase family 1 member B1 (Homo sapiens, UniProt P15121); test: Inhibition of human recombinant ALDR1
# [18] = Antiproliferative activity against mouse Ba/F3 EML4-ALK cells assessed as inhibition of cell growth; type: functional, cell-based
# [19] = test system: DU-145; test: Antiproliferative activity against human DU-145 cells assessed as reduction in cell growth incubated for 48 hrs by CCK-8 assay; type: functional, cell-based; conditions: DU-145, 48 h
# [20] = test system: MCF7; test: Antiproliferative activity against human MCF7 cells assessed as reduction in cell growth incubated for 48 hrs by CCK-8 assay; type: functional, cell-based; conditions: MCF7, 48 h
# [21] = test system: NCI-H460; test: Antiproliferative activity against human NCI-H460 cells assessed as reduction in cell growth incubated for 48 hrs by CCK-8 assay; type: functional, cell-based; conditions: NCI-H460, 48 h
# [22] = test system: HCT-116; test: Antiproliferative activity against human HCT-116 cells assessed as reduction in cell viability incubated for 72 hrs by MTT assay; type: functional, cell-based; conditions: HCT-116, 72 h
# [23] = test system: SW-620; test: Antiproliferative activity against human SW620 cells assessed as reduction in cell viability incubated for 72 hrs by MTT assay; type: functional, cell-based; conditions: SW-620, 72 h
# [24] = test system: MIA PaCa-2; test: Antiproliferative activity against human MIA PaCa-2 cells assessed as reduction in cell growth by MTT assay; type: functional, cell-based
# [25] = test system: BGC-823; test: Antiproliferative activity against human BGC-823 cells assessed as reduction in cell growth by MTT assay; type: functional, cell-based
# [26] = test system: HCT-116; test: Antiproliferative activity against human HCT-116 cells assessed as reduction in cell growth by MTT assay; type: functional, cell-based
# [27] = test system: MCF7; test: Antiproliferative activity against human MCF7 cells assessed as reduction in cell growth by MTT assay; type: functional, cell-based
# [28] = test system: A-375; test: Antiproliferative activity against human A-375 cells assessed as reduction in cell growth by MTT assay; type: functional, cell-based
# [29] = test system: MCF7; test: Growth inhibition of human MCF7 cells measured after 48 hrs by SRB assay; type: functional
# [30] = test system: Caco-2; test: Growth inhibition of human Caco-2 cells measured after 48 hrs by SRB assay; type: functional
# [31] = Cytotoxicity against African green monkey Vero cells incubated for 48 hrs by SRB colorimetric assay; type: toxicity, cell-based, Chlorocebus sabaeus
# [32] = test system: NCI-H460; test: Growth inhibition of human NCI-H460 cells measured after 48 hrs by SRB assay; type: functional
# [33] = test system: A549; test: Cytotoxicity against human A549 cells assessed as reduction in cell growth measured after 24 hrs by MTT assay; type: functional, cell-based; conditions: A549, 24 h
# [34] = target: Mitogen-activated protein kinase 6 (Homo sapiens, UniProt Q16659); test: Inhibition of ERK3 (unknown origin)
# [35] = target: Mitogen-activated protein kinase 3 (Homo sapiens, UniProt P27361); test: Inhibition of ERK1 (unknown origin)
# [36] = target: Mitogen-activated protein kinase 1 (Homo sapiens, UniProt P28482); test: Inhibition of ERK2 (unknown origin)
# Chain of Mitogen-activated protein kinase 1 (P28482 whole entry): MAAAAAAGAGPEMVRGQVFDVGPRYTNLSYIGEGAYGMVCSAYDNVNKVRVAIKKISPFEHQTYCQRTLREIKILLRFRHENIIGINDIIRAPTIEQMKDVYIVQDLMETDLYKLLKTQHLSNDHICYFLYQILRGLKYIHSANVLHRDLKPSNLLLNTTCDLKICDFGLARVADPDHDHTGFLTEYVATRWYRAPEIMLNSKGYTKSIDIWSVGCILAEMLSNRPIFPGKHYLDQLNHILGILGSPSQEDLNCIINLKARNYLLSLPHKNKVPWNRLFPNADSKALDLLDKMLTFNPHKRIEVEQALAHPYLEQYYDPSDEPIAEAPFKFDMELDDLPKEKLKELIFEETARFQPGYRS
# Chain of Mitogen-activated protein kinase 6 (Q16659 whole entry): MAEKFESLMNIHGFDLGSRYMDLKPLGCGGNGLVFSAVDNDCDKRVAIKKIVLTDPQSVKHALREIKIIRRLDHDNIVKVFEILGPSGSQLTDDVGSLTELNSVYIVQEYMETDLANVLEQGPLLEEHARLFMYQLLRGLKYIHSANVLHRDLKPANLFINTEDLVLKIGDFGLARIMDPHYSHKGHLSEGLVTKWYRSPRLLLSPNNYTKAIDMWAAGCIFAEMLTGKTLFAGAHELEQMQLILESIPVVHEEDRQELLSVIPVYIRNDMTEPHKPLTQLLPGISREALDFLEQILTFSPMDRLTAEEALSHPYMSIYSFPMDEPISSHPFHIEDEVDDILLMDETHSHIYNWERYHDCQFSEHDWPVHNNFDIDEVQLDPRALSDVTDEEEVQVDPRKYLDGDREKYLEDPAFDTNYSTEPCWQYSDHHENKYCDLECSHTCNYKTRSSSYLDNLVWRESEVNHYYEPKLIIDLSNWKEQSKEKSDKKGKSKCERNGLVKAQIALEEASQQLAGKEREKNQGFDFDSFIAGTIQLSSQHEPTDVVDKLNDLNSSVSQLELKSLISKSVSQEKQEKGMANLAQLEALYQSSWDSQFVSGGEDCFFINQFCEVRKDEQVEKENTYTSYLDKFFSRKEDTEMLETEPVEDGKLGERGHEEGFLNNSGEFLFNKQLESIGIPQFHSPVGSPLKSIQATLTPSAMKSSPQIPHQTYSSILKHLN
# Chain of Mitogen-activated protein kinase 3 (P27361 whole entry): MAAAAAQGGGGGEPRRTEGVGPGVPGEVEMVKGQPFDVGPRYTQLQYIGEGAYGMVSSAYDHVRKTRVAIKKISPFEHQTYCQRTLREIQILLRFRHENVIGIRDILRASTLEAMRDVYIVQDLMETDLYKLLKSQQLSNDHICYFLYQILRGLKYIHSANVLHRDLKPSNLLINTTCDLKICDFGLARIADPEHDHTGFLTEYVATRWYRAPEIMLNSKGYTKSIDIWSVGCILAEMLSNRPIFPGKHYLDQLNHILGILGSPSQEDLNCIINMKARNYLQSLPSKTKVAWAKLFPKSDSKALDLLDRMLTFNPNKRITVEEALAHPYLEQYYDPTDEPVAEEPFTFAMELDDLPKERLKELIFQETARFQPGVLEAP
smiles,measurement,setting,value
c1cc(-c2nc3cnccn3c2NC2CCCCC2)ccn1,IC50,[1],57 µM
N=C(NC(=O)c1nc(Cl)c(N)nc1N)NC(=O)c1c(Cl)cccc1Cl,IC50,[2],12.8 µM
COc1ccc(-c2cn3c(-c4ccc(OC)cc4)cnc3c(Oc3ccc4c(C)cc(=O)oc4c3)n2)cc1,Activity,[3],91.98%
same,Activity,[4],85.69%
same,Activity,[5],83.52%
same,Activity,[6],93.71%
same,Activity,[7],83.52%
Clc1ccc(-c2nc3oc4ccccc4c3nc2-c2ccc(Cl)cc2)cc1,IC50 at 72 h,[8],> 40 µM
same,IC50,[9],25.4 µM
same,IC50,[10],10 µM
same,IC50,[11],20.2 µM
same,IC50,[12],12.5 µM
S=C(N/N=C(\c1ccccc1)c1ccccn1)Nc1ccccc1,IC50 at 24 h,[13],1.43 µM
Nc1nc(N2CCCC2CC2CCCC2CO)cnc1-c1cccc(Cl)c1Cl (stereo unspecified),Activity,[14],32%
same,Activity,[15],27%
same,Activity,[16],30%
O=C(c1ccc(O)cc1)c1ncc(-c2ccc(O)cc2)nc1C(=O)c1ccc(O)cc1,IC50,[17],6.47 µM
CCc1nc(C(N)=O)c(Nc2ccc3c(c2)CCN(C2CC=CC2)CC3)nc1NC1CCOCC1,IC50,[18],0.0012 µM
C[C@@H]1[C@]2(O[C@H]3C=C4[C@@H]5CC[C@H]6Cc7nc8c(nc7C[C@]6(C)[C@H]5C[C@@H](O)[C@]4(C)[C@]31O)C[C@@H]1CC[C@H]3C4=CC[C@@H]5[C@H](C)[C@@]6(OC[C@]45C(=O)C[C@@H]3[C@@]1(C)C8)OC(C)(C)C[C@H]6O)O[C@](C)(CO)C[C@H]2O [CEPHALOSTATIN 1],IC50,[19],0.00011 µM
same,IC50,[20],0.099 nM
same,IC50,[21],0.044 nM
O=C(Nc1ccc2ccccc2c1)c1c(Cc2ccccc2)n2nc3ccccc3c2c(=O)n1C1CC1,IC50,[22],1.3 µM
same,IC50,[23],1.8 µM
COc1ccc(OCCN2CCn3nnc(-c4cc(C(C)C)c(O)cc4O)c3C2)cc1,IC50,[24],6.74 µM
same,IC50,[25],4.15 µM
same,IC50,[26],10.2 µM
same,IC50,[27],5.58 µM
same,IC50,[28],2.29 µM
COC(=O)c1sc2nccnc2c1Nc1cc(OC)cc(OC)c1,GI50,[29],41 µM
same,GI50,[30],87 µM
same,IC50 at 48 h,[31],144 µM
same,GI50,[32],53 µM
N/C(=N\N=C\c1ccccc1)c1cnccn1,IC50,[33],0.173 mg/L
CN1CCN([C@H]2C[C@@H](c3nc(-c4ccc5ccc(-c6ccccc6)nc5c4)c4c(N)nccn43)C2)CC1,IC50,[34],0.21 µM
same,IC50,[35],0.21 µM
same,IC50,[36],0.21 µM
